# In ChEMBL document CHEMBL1938346, “Structure-activity studies of diazabicyclo[3.3.0]octane-substituted pyrazines and pyridines as potent α4β2 nicotinic acetylcholine receptor ligands” (J Med Chem, 2011):
# pEC50, pKi: −log10 of the molar value.
# What was measured:
# [1] = Agonist activity at nAChR alpha3beta4* expressed in human IMR32 cells assessed as calcium flux by FLIPR assay; format: functional, cell-based; conditions: for pEC50: IMR-32, read-out: EC50
# [2] = Agonist activity at nAChR alpha3beta4* expressed in human IMR32 cells assessed as calcium flux by FLIPR assay relative to nicotine; format: functional; conditions: IMR-32
# [3] = target: Neuronal acetylcholine receptor; alpha4/beta2 (Rattus norvegicus, UniProt P09483+P12390); assay: Displacement of [3H]cytisine from nAChR alpha4beta2 in rat brain membrane; format: cell membranes; conditions: for pKi: read-out: Ki; for Ki: read-out: pKi (converted)
# [4] = Ratio drug uptake in brain to plasma of rat at 2 umol/kg, ip measured after 0.75 hrs; format: ADME, organism-based; conditions: read-out: BPR
# [5] = Drug uptake in rat brain at 2 umol/kg, ip measured after 0.75 hrs; format: ADME, organism-based; conditions: read-out: Drug uptake
# [6] = Drug uptake in rat plasma at 2 umol/kg, ip measured after 0.75 hrs; format: ADME, organism-based
# [7] = Half life in rat at 2 umol/kg, iv measured after 8 hrs; format: ADME, organism-based; conditions: in vivo
# [8] = Half life in rat at 2 umol/kg, po measured after 8 hrs; format: ADME, organism-based; conditions: in vivo
# [9] = Oral bioavailability in rat at 2 umol/kg; format: ADME, organism-based; conditions: in vivo
# [10] = Bioavailability in rat at 2 umol/kg, ip; format: ADME, organism-based; conditions: in vivo
# [11] = Half life in rat at 2 umol/kg, ip measured after 8 hrs; format: ADME, organism-based; conditions: in vivo
# Neuronal acetylcholine receptor; alpha4/beta2, sequence (P09483 whole entry): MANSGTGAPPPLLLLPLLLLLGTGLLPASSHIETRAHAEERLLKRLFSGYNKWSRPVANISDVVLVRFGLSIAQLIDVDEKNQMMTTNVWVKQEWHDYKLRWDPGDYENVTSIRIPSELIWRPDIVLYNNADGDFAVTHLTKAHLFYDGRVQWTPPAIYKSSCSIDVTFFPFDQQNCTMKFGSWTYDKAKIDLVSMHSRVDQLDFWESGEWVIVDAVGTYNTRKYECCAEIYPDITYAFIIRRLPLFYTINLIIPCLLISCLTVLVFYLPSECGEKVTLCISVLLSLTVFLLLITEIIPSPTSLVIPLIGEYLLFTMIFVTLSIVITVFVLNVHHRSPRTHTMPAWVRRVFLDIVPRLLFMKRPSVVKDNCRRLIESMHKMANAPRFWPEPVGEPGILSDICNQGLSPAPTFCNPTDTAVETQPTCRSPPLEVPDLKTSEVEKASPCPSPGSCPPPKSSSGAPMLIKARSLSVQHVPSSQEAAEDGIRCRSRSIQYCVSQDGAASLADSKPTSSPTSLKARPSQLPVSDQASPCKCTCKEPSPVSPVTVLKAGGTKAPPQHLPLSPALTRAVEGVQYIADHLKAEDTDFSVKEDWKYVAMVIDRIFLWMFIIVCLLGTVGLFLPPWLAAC
# Neuronal acetylcholine receptor; alpha4/beta2, sequence (P12390 whole entry): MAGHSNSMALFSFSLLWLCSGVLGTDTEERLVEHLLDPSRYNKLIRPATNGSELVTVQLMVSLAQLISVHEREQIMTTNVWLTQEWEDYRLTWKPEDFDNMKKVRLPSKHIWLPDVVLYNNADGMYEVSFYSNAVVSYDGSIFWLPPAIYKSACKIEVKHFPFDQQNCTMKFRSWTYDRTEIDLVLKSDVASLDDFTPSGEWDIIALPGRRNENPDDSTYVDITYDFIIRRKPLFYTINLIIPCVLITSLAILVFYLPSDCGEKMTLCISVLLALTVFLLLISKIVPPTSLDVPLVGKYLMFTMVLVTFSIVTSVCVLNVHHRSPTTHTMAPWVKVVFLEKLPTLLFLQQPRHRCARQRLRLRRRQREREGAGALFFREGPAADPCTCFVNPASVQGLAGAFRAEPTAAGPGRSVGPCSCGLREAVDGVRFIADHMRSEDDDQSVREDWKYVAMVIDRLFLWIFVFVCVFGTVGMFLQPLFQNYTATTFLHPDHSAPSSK
Structure (SMILES),pEC50 [1],Emax [2] [%],pKi [3],other results
O=C(Nc1ccc(Cl)cc1)c1cncc(N2C[C@H]3CNC[C@H]3C2)c1,< 4.00,8,9.70,
O=C(NCc1ccccc1C(F)(F)F)c1cncc(N2C[C@H]3CNC[C@H]3C2)c1,< 4.00,4,9.05,Kp at 0.75 h [4]: 0.04; concentration at 0.75 h [5]: 6.9 ng/mL; concentration at 0.75 h [6]: 164 ng/mL
CC(NC(=O)c1cncc(N2C[C@H]3CNC[C@H]3C2)n1)c1ccccc1 (stereo not given in full),,,6.88,
c1cncc(N2C[C@H]3CCN[C@H]3C2)c1,,,9.47,
c1ccc(COc2cncc(N3C[C@H]4CNC[C@H]4C3)n2)cc1,,,,Kp at 0.75 h [4]: 3.27; concentration at 0.75 h [5]: 76.8 ng/mL; concentration at 0.75 h [6]: 23.5 ng/mL
O=C(Nc1cccc(I)c1)c1cncc(N2C[C@H]3CNC[C@H]3C2)n1,< 4.00,7,8.48,
Cc1ccccc1CNC(=O)c1cncc(N2C[C@H]3CNC[C@H]3C2)n1,< 4.00,17,8.77,half-life [7]: 1.7 h; half-life [8]: 2.1 h; bioavailability [9]: 35%; Kp at 0.75 h [4]: 0.04; concentration at 0.75 h [5]: 8 ng/mL; concentration at 0.75 h [6]: 178 ng/mL; bioavailability [10]: 77%; half-life [11]: 2.4 h
O=C(NCc1ccc(Cl)c(Cl)c1)c1cncc(N2C[C@H]3CNC[C@H]3C2)n1,< 4.00,12,8.60,
O=C(Nc1cccc(Cl)c1)c1cncc(N2C[C@H]3CNC[C@H]3C2)n1,< 4.00,26,9.15,
Cc1ccccc1CNC(=O)c1cncc(N2CC[C@H]3CNC[C@H]32)c1,,,6.06,
c1cncc(N2C[C@H]3CNC[C@H]3C2)c1,,,9.89,
O=C(Nc1cccc(I)c1)c1cncc(N2C[C@H]3CNC[C@H]3C2)c1,< 4.00,6,10.70,Ki [3]: 0.0245 nM
Cc1ccccc1CNC(=O)c1cncc(N2CC[C@@H]3CNC[C@@H]32)n1,,,5.25,
O=C(NCCc1ccccc1F)c1cncc(N2C[C@H]3CNC[C@H]3C2)c1,4.80,6,9.10,"EC50 ([1]; IMR-32, read-out: pEC50 (converted)): 15800 nM"
C[C@H](NC(=O)c1cncc(N2C[C@H]3CNC[C@H]3C2)c1)c1ccccc1,< 4.00,5,7.41,
O=C(Nc1cc(F)cc(F)c1)c1cncc(N2C[C@H]3CNC[C@H]3C2)c1,< 4.00,18,10.40,
Cc1cc(C)cc(NC(=O)c2cncc(N3C[C@H]4CNC[C@H]4C3)n2)c1,,,7.29,
Cc1ccccc1CNC(=O)c1cncc(N2C[C@H]3CNC[C@H]3C2)c1,< 4.00,8,8.57,Kp at 0.75 h [4]: 0.02; concentration at 0.75 h [5]: 3.3 ng/mL; concentration at 0.75 h [6]: 142 ng/mL
C[C@@H](NC(=O)c1cncc(N2C[C@H]3CNC[C@H]3C2)c1)c1ccccc1,< 4.00,6,8.66,Kp at 0.75 h [4]: 0.15; concentration at 0.75 h [5]: 20.6 ng/mL; concentration at 0.75 h [6]: 139 ng/mL

Structure (SMILES),pEC50 [1],Emax [2] [%],pKi [3],other results
Cc1cccc(NC(=O)c2cncc(N3C[C@@H]4CCN[C@@H]4C3)n2)c1,,,5.58,
O=C(NC1CCc2ccccc21)c1cncc(N2C[C@H]3CNC[C@H]3C2)c1 (stereo not given in full),< 4.00,10,7.77,
CC(C)Oc1cccc(NC(=O)c2cncc(N3C[C@H]4CNC[C@H]4C3)n2)c1,< 4.00,7,7.59,
O=C(NCCc1ccccc1)c1cncc(N2C[C@H]3CNC[C@H]3C2)n1,< 4.00,13,7.16,
c1cncc(N2C[C@@H]3CCN[C@@H]3C2)c1,,,8.54,
O=C(Nc1cc(F)cc(F)c1)c1cncc(N2C[C@H]3CNC[C@H]3C2)n1,< 4.00,8,7.85,
CN(Cc1ccccc1)C(=O)c1cncc(N2C[C@H]3CNC[C@H]3C2)n1,,,6.76,
c1cnc(N2C[C@H]3CNC[C@H]3C2)cn1,,,8.11,
Cc1cccc(NC(=O)c2cncc(N3C[C@H]4CNC[C@H]4C3)c2)c1,< 4.00,6,10.00,Kp at 0.75 h [4]: 0.12; concentration at 0.75 h [5]: 6.4 ng/mL; concentration at 0.75 h [6]: 52.1 ng/mL
Cc1ccccc1CNC(=O)c1cncc(N2C[C@@H]3CCN[C@@H]3C2)n1,,,< 5.00,Ki [3]: > 10000 nM
O=C(NCc1ccccc1)c1cncc(N2C[C@H]3CNC[C@H]3C2)n1,< 4.00,10,8.41,Kp at 0.75 h [4]: 0.04; concentration at 0.75 h [5]: 3 ng/mL; concentration at 0.75 h [6]: 81.3 ng/mL
Cc1cccc(NC(=O)c2cncc(N3C[C@H]4CNC[C@H]4C3)n2)c1,< 4.00,10,8.12,
CC(C)c1cccc(NC(=O)c2cncc(N3C[C@H]4CNC[C@H]4C3)n2)c1,,,7.46,
CC(C)Oc1cccc(NC(=O)c2cncc(N3C[C@H]4CNC[C@H]4C3)c2)c1,< 4.00,10,8.96,
COc1cc(NC(=O)c2cncc(N3C[C@H]4CNC[C@H]4C3)c2)cc(OC)c1,< 4.00,10,9.52,Kp at 0.75 h [4]: 0.07; concentration at 0.75 h [5]: 5.5 ng/mL; concentration at 0.75 h [6]: 74.5 ng/mL
O=C(c1cncc(N2C[C@H]3CNC[C@H]3C2)c1)N1CCc2ccccc2C1,< 4.00,7,9.52,
Cc1cc(C)cc(NC(=O)c2cncc(N3C[C@H]4CNC[C@H]4C3)c2)c1,< 4.00,6,9.52,Ki [3]: 0.339 nM
CN(Cc1ccccc1)C(=O)c1cncc(N2C[C@H]3CNC[C@H]3C2)c1,< 4.00,14,8.41,Kp at 0.75 h [4]: 0.07; concentration at 0.75 h [5]: 6 ng/mL; concentration at 0.75 h [6]: 89.8 ng/mL
